According to the supplement of paper PMC10307832:

Key:
Experiment in all cases: relative viability (nuclei count vs DMSO), 5 days (fraction); higher = more cells survive
[1] = compound: CC1=CC=C(C=C1)C(=O)CN2C3=C(CCCC3)SC2=N [Pifithrin_alpha] + C[C@]1(O)C[C@@H](c2nc(-c3ccc4ccc(-c5ccccc5)nc4c3)c3c(N)nccn32)C1 [Linsitinib] (partner 1 µM)
In short: (§1)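 Dosing by pin tool came one day after lung cancer cell lines were seeded in 1536-well plates, using either one drug or a fixed anchor-drug dose plus five library-drug doses (not always all listed) in √10 steps. After 5 days, nuclei were counted on 4× images. Relative viability is treated-well nuclei count divided by vehicle-well nuclei count, and values are medians of duplicate plates.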

Bemcentinib + Foretinib = compound: Nc1nc(Nc2ccc3c(c2)CC[C@@H](N2CCCC2)CC3)nn1-c1cc2c(nn1)-c1ccccc1CCC2 [Bemcentinib] + COc1cc2c(Oc3ccc(NC(=O)C4(C(=O)Nc5ccc(F)cc5)CC4)cc3F)ccnc2cc1OCCCN1CCOCC1 [Foretinib] (partner 0.25 µM)
In short: as §1

Bemcentinib + Alpelisib = compound: Nc1nc(Nc2ccc3c(c2)CC[C@@H](N2CCCC2)CC3)nn1-c1cc2c(nn1)-c1ccccc1CCC2 [Bemcentinib] + Cc1nc(NC(=O)N2CCC[C@H]2C(N)=O)sc1-c1ccnc(C(C)(C)C(F)(F)F)c1 [Alpelisib] (partner 2 µM)
In short: as §1

Axitinib + Navitoclax = compound: CNC(=O)c1ccccc1Sc1ccc2c(/C=C/c3ccccn3)n[nH]c2c1 [Axitinib] + CC1(C)CCC(c2ccc(Cl)cc2)=C(CN2CCN(c3ccc(C(=O)NS(=O)(=O)c4ccc(N[C@H](CCN5CCOCC5)CSc5ccccc5)c(S(=O)(=O)C(F)(F)F)c4)cc3)CC2)C1 [Navitoclax] (partner 0.5 µM)
In short: as §1

Cell Line | relative viability ([1]; first compound 1 µM) | relative viability ([1]; first compound 3.162 µM) | relative viability ([1]; first compound 10 µM) | relative viability ([1]; first compound 31.62 µM) | relative viability ([1]; first compound 100 µM) | relative viability (Bemcentinib + Foretinib; first compound 0.04 µM) | relative viability (Bemcentinib + Foretinib; first compound 0.1265 µM) | relative viability (Bemcentinib + Foretinib; first compound 0.4 µM) | relative viability (Bemcentinib + Foretinib; first compound 1.265 µM) | relative viability (Bemcentinib + Foretinib; first compound 4 µM) | relative viability (Bemcentinib + Alpelisib; first compound 0.04 µM) | relative viability (Bemcentinib + Alpelisib; first compound 0.1265 µM) | relative viability (Bemcentinib + Alpelisib; first compound 0.4 µM) | relative viability (Bemcentinib + Alpelisib; first compound 1.265 µM) | relative viability (Bemcentinib + Alpelisib; first compound 4 µM) | relative viability (Axitinib + Navitoclax; first compound 0.005 µM) | relative viability (Axitinib + Navitoclax; first compound 0.01581 µM) | relative viability (Axitinib + Navitoclax; first compound 0.05 µM) | relative viability (Axitinib + Navitoclax; first compound 0.1581 µM) | relative viability (Axitinib + Navitoclax; first compound 0.5 µM)
UMC-11 | 1.16 | 1.01 | 1.1 | 0.913 | 1.49 | 0.939 | 1.18 | 1.15 | 1.12 | 1.08 | 1.08 | 1.19 | 1.11 | 0.968 | 1.05 | 0.322 | 0.305 | 0.282 | 0.347 | 0.294
LOU-NH91 | 0.789 | 0.849 | 0.828 | 0.753 | 0.846 | 0.891 | 0.895 | 0.933 | 1.02 | 0.988 | 0.631 | 0.702 | 0.7 | 0.717 | 0.71 | 0.744 | 0.467 | 0.66 | 0.645 | 0.802
HCC-15 | 0.937 | 0.977 | 0.868 | 0.593 | 0.894 | 1.11 | 1.18 | 1.11 | 1.04 | 1.11 | 0.886 | 0.945 | 0.97 | 0.92 | 0.889 | 0.763 | 0.699 | 0.727 | 0.706 | 0.78
NCI-H1975 | 0.948 | 0.707 | 0.643 | 0.733 | 0.523 | 0.982 | 0.995 | 0.995 | 0.865 | 1.04 | 0.645 | 0.676 | 0.715 | 0.605 | 0.632 | 1.24 | 1.07 | 1.14 | 1.19 | 1.17
NCI-H1651 | 0.997 | 1.13 | 0.892 | 0.709 | 1.02 | 0.824 | 0.928 | 0.812 | 0.856 | 1.14 | 0.935 | 1.01 | 1.12 | 0.964 | 1.02 | 1.07 | 0.984 | 1.06 | 1.1 | 1.15
NCI-H23 | 0.543 | 0.546 | 0.567 | 0.443 | 0.515 | 0.916 | 1.2 | 1.15 | 1.09 | 1.08 | 0.725 | 0.745 | 0.814 | 0.758 | 0.806 | 0.907 | 0.947 | 0.856 | 0.87 | 0.893
PC-14 | 0.975 | 0.979 | 0.941 | 0.764 | 0.743 | 1.07 | 0.907 | 1 | 0.959 | 1.02 | 0.995 | 1.01 | 0.925 | 0.985 | 1.04 | 1.09 | 1.01 | 1.05 | 0.967 | 1.05
H3255 | 1.02 | 0.969 | 0.919 | 0.672 | 0.962 | 0.897 | 0.857 | 0.766 | 0.892 | 0.724 | 0.63 | 0.71 | 0.713 | 0.61 | 0.703 | 0.617 | 0.377 | 0.354 | 0.476 | 0.561
NCI-H3122 | 1.07 | 1.06 | 1.03 | 0.879 | 1.08 |  | 1.06 | 0.972 | 0.943 | 0.948 | 0.447 | 0.825 | 0.829 | 0.819 | 0.82 | 0.992 | 0.956 | 1.05 | 1.02 | 1.04
NCI-H1703 | 0.596 | 0.6 | 0.786 | 0.733 | 0.635 |  | 0.336 | 0.377 | 0.312 | 0.334 | 0.29 | 0.382 | 0.39 | 0.312 | 0.426 | 0.868 | 0.36 | 0.306 | 0.212 | 0.305
NCI-H2009 | 1.25 | 1.25 | 1.16 | 0.822 | 0.998 | 1.29 | 1.26 | 1.25 | 1.24 | 1.24 | 1.23 | 1.2 | 1.24 | 1.2 | 1.16 | 1.19 | 1.19 | 1.17 | 1.18 | 1.23
Calu-6 | 0.932 | 1.05 | 0.997 |  | 0.848 | 0.93 | 0.938 | 0.947 | 0.917 | 0.905 | 0.928 | 1.04 | 1.01 | 1.04 | 1.07 | 0.923 | 0.87 | 0.751 | 0.885 | 0.929
HCC-827 | 0.942 | 0.96 | 0.91 | 0.589 | 0.841 | 1.13 | 1.05 | 1.08 | 1.09 | 1.08 | 0.999 | 1.02 | 0.909 | 0.957 | 0.982 | 0.971 | 0.959 | 0.998 | 1.02 | 1
LXF-289 | 0.985 | 0.967 | 0.959 | 0.869 | 0.961 | 0.959 | 1.06 | 0.976 | 0.983 | 0.994 | 1.09 | 1.05 | 1.02 | 1.06 | 1.05 | 0.952 | 0.944 | 0.944 | 0.945 | 0.928
NCI-H596 | 1.04 | 1.2 | 1.21 | 1.11 | 1.16 | 0.84 | 0.848 | 0.974 | 0.799 | 0.94 | 0.574 | 0.612 | 0.524 | 0.537 | 0.392 | 0.979 | 0.859 | 1.04 | 0.847 | 0.969
NCI-H727 | 0.295 | 0.312 | 0.271 | 0.293 | 0.217 | 0.881 | 1.09 | 0.935 | 0.88 | 1.03 | 0.528 | 0.576 | 0.492 | 0.491 | 0.621 | 0.582 | 0.466 | 0.454 | 0.451 | 0.61
NCI-H1993 |  | 0.669 | 0.741 | 0.684 | 0.714 | 0.82 | 0.76 | 0.833 | 0.764 | 0.829 | 0.74 | 0.74 | 0.694 | 0.712 | 0.687 | 1.13 | 0.937 | 1.07 | 1.03 | 1.1
NCI-H1437 | 1.14 | 1.24 | 0.893 | 0.564 | 0.54 | 1.28 | 1.26 | 1.33 | 1.21 | 1.3 | 0.961 | 1.03 | 1.16 | 1.01 | 1.01 | 1.14 | 1.07 | 1.13 | 1.11 | 1.09
NCI-H2023 | 0.674 | 0.511 | 0.63 | 0.46 | 0.476 | 0.824 | 1.09 | 0.936 | 0.731 | 0.686 | 0.678 | 0.602 | 0.72 | 0.528 | 0.587 | 1.05 | 1.01 | 0.874 | 0.94 | 1.01
LK-2 | 0.608 | 0.728 | 0.544 |  | 0.646 | 1.51 |  | 1.29 | 1.35 | 1.49 | 1.1 | 1.22 | 1.27 | 1.15 | 1.31 | 1.1 | 0.84 | 0.657 | 0.659 | 0.644
HOP-62 | 1.01 | 0.979 | 1.18 | 0.781 | 1.07 | 1.22 | 1.14 | 1.01 | 1.06 | 1.21 | 0.914 | 0.831 |  | 1.19 | 0.747 | 1.07 | 1.06 | 1.02 | 1.06 | 1.12
NCI-H441 | 0.52 | 0.528 | 0.613 | 0.478 | 0.662 | 1.16 | 1.05 | 0.892 | 0.917 | 0.875 | 0.86 | 0.74 | 0.756 | 0.467 | 0.976 | 0.521 | 1 | 0.727 | 0.754 | 0.994
LC-2-ad | 0.849 | 0.846 | 0.804 | 0.547 | 0.767 | 0.881 | 0.964 | 1.01 | 0.927 | 0.969 | 0.877 | 0.969 | 0.907 | 0.822 | 0.852 | 0.572 | 0.576 | 0.532 | 0.506 | 0.573
NCI-H838 | 0.96 | 0.888 | 0.853 | 0.735 | 0.782 | 1.05 | 1.15 | 1.21 | 1.11 | 1.18 | 0.961 | 1.19 | 1.08 | 1.01 | 1.04 | 1.2 | 1.18 | 1.21 | 1.15 | 1.3
NCI-H1944 | 1.18 | 1.23 | 1.11 |  | 1.04 | 0.876 | 0.924 | 0.866 | 0.951 | 0.865 | 0.825 | 0.821 | 0.898 | 0.871 | 0.846 | 1.07 | 0.995 | 1.01 | 1.02 | 1.06
CAL-12T | 0.877 | 0.702 | 0.819 | 0.718 | 0.702 | 1.17 | 1.1 | 0.97 | 1.11 | 1.07 | 1.19 | 1.51 | 1.37 | 1.31 | 1.16 | 1.29 | 1.47 | 1.15 | 1.19 | 1.45
EPLC-272H |  | 1.07 | 1.21 | 0.995 | 1.11 | 0.639 | 0.899 | 0.712 | 0.839 | 0.988 |  | 0.991 | 0.951 | 0.977 | 1.07 | 1.19 | 1.11 | 1.09 | 1.18 | 1.09
